Experiment [1] concerns COLO-205 cells. The experiment can be described thus: COLO-205 cell proliferation assay (MTS), mechanism-based assay for CDK4/6 inhibition. Particulars: Homo sapiens, compound treatment 48 h, MTS absorbance 490 nm, read-out: COLO205 IC50. The method, then:
To investigate whether a compound is able to inhibit the activity of CDK4/6 in cells, a mechanism-based assay using COLO-205 cell was developed. In this assay, inhibition of CDK4/6 was detected by the inhibition of COLO-205 cells proliferation. COLO-205 cells were cultured in culture flasks to 40-80% confluence in RPMI-1640 plus 10% fetal bovine serum. Cells were collected and plated onto 96-well plates at desired cell density (2000 cells/well). Plates were incubated overnight at 37° C., with 5% CO2 to adhere. Compounds were added to the plates, the final compound concentrations were […], 123.5, 41.2, 13.7, 4.6 and 1.5 nM. Place plates at 37° C., with 5% CO2 for 48 h. After removing the medium, 20 μl MTS/100 μl medium mixture solution were added to each well and incubate the plates for exactly 1.5 hours. Stop the reaction by adding 25 μl 10% SDS per well. Measure absorbance at 490 nm and 650 nm (reference wavelength). IC50 was calculated using GraphPad Prism 5.0.

Experiment [2] relates to BE(2)-C Cells. The experiment in a line: BE(2)-C cell proliferation assay (MTS). Format: cell-based. Conditions: Homo sapiens, compound treatment 72 hours. Here is the method: BE(2)-C Cells were plated in 96-well plates with 150 μl culture medium at cell density of 5000 cells/well. Compounds dilution: 20 mM stock solution of all compounds in DMSO. On the day of treatment, compounds were fresh diluted from the stock solution to a working solution (4× of final concentrations) in culture medium. 50 μl of compound mixtures were added to duplicate wells along with 150 μl of cells. 24 hours after BE(2)-C cells were plated, testing compounds were added. Cell proliferation was measured by MTS assay following manufacturer's instruction after compound treatment for 72 hours.

SMILES strings stand for the structures.

Turning to `CN(C)C(=O)c1sc2cnc(Nc3ccc4c(n3)CCNC4)nc2c1[C@H]1CC[C@H](C)CC1` [Example 87, N,N-dimethyl-7-((1r,4r)-4-methylcyclohexyl)-2-((5,6,7,8-tetrahydro-1,6-naphthyridin-2-yl)amino)thieno[3,2-d]pyrimidine-6-carboxamide], in experiment [1], the IC50 was found to be 450 nM.
On the same count and under the same terms, as for `NC(=O)c1sc2cnc(Nc3ccc(N4CCNCC4)cn3)nc2c1C1CCCC1` [Example 73, 7-cyclopentyl-2-((5-(piperazin-1-yl)pyridin-2-yl)amino)thieno[3,2-d]pyrimidine-6-carboxamide], the figure is 624 nM.
Consider `CN(C)C(=O)c1sc2cnc(Nc3ccc4c(n3)CCN(C(=O)CO)C4)nc2c1[C@H]1CC[C@H](C)CC1` [Example 90, 2-((6-(2-hydroxyacetyl)-5,6,7,8-tetrahydro-1,6-naphthyridin-2-yl)amino)-N,N-dimethyl-7-((1r,4r)-4-methylcyclohexyl)thieno[3,2-d]pyrimidine-6-carboxamide], for which, in experiment [1], the IC50 came out at 270 nM.
`CN(C)C(=O)c1sc2cnc(Nc3ccc(N4CCNCC4)cn3)nc2c1C1CCCC1` [Example 1, 7-Cyclopentyl-N,N-dimethyl-2-(5-(piperazin-1-yl)pyridin-2-ylamino)thieno[3,2-d]pyrimidine-6-carboxamide]: the figures for the IC50 in experiment [2] and in experiment [1] were 38.5 nM and 1110 nM, respectively.
For `CN1CCc2nc(Nc3ncc4sc(C(=O)N(C)C)c([C@H]5CC[C@H](C)CC5)c4n3)ccc2C1` [Example 88, N,N-dimethyl-2-((6-methyl-5,6,7,8-tetrahydro-1,6-naphthyridin-2-yl)amino)-7-((1r,4r)-4-methylcyclohexyl)thieno[3,2-d]pyrimidine-6-carboxamide], the IC50 in experiment [1] is 855 nM.
With `CN1CCN(c2ccc(Nc3ncc4sc(C(=O)N(C)C)c(C5CCCC5)c4n3)nc2)CC1` [Example 2, 7-Cyclopentyl-N,N-dimethyl-2-(5-(4-methylpiperazin-1-yl)pyridin-2-ylamino)thieno[3,2-d]pyrimidine-6-carboxamide], the IC50 stood at 24.1 nM in experiment [2] and 339 nM in experiment [1].
With `CN(C)C(=O)c1oc2cnc(Nc3ccc(N4CCNCC4)cn3)nc2c1C1CCCC1` [Example 7, 7-cyclopentyl-N,N-dimethyl-2-((5-(piperazin-1-yl)pyridin-2-yl)amino)furo[3,2-d]pyrimidine-6-carboxamide], the IC50 in experiment [1] came out at 711 nM.
Consider `CN(C)C(=O)c1cc2cnc(Nc3ccc(N4CCNCC4)cn3)nn2c1C1CCCC1` [Example 5, 7-cyclopentyl-N,N-dimethyl-2-((5-(piperazin-1-yl)pyridin-2-yl)amino)pyrrolo[2,1-f][1,2,4]triazine-6-carboxamide], for which the IC50 in experiment [2] was 601 nM; in experiment [1] it was 517 nM.
Consider `CC(=O)N1CCc2nc(Nc3ncc4sc(C(=O)N(C)C)c([C@H]5CC[C@H](C)CC5)c4n3)ccc2C1` [Example 89, 2-((6-acetyl-5,6,7,8-tetrahydro-1,6-naphthyridin-2-yl)amino)-N,N-dimethyl-7-((1r,4r)-4-methylcyclohexyl)thieno[3,2-d]pyrimidine-6-carboxamide], for which the IC50 in experiment [1] came out at 389 nM.
On to `CN(C)C(=O)c1sc2cnc(Nc3ccc(N4CCNCC4)nn3)nc2c1[C@H]1CC[C@H](C)CC1` [Example 91, N,N-dimethyl-7-((1r,4r)-4-methylcyclohexyl)-2-((6-(piperazin-1-yl)pyridazin-3-yl)amino)thieno[3,2-d]pyrimidine-6-carboxamide], for which the IC50 in experiment [1] came out at 223 nM.

For the origin of these results see patent US10087195B2, “Certain protein kinase inhibitors” (Shanghai Fochon Pharmaceutical Co., Ltd., priority 2014, dated 2018).
